The text below walks through data of PMC11035632, “Discovery of gefitinib-1,2,3-triazole derivatives against lung cancer via inducing apoptosis and inhibiting the colony formation” (Scientific Reports, 2024).

For orientation: IC50 means the concentration needed to halve the response being measured.

One test has as its system NCI-H1437 cells. The experiment in a line: CCK-8 assay for cell proliferation and cytotoxicity, NCI-H1437. The format is cell-based. To be noted: Homo sapiens, CCK-8, 48 h, read-out: IC50 1437. The method, then: Three types of lung cells were seeded into 96-well plate at a density of 5 × 10^3 cells per well at logarithmic growth phase and cultured in 37 °C. […] After that, cell viability was determined according to the instruction of the CCK-8 assay. Next, 10 μL of CCK-8 solution was added to each well of the plate and incubate the plate for 1–4 h in the incubator. The absorbance was measured at 450 nm using a microplate reader (Bio-Tek). The percentage of viable cells was measured using the following formula where three independent experiments were performed: [(A450 sample − A450blank)/(A450 control − A450blank)] × 100%.
A general note: Tetrazolium dyes change colour on reduction, which living cells bring about.

Another test has as its system L02 cells. The experiment in a line: Cytotoxicity / survival rate in normal hepatocytes L02. The format is cell-based. The following applies: for Survival rate %, 48 h: L02 cells.
Test [1] has as its system H1299 cells. The experiment in a line: Flow cytometry detection of apoptosis (Annexin V-EGFP/PI). The format is cell-based, human. To be noted: 48 h. The method, then: H1299 cells were treated with different concentrations of 7a and 7j for 48 h. The cells were stained with Annexin-V and PI, and the proportion of apoptotic cells was detected using flow cytometry.
H1299 cells were seeded in a 6-well plate at a density of 1 × 10^5 cells/well and incubated for 24 h. On the following day, the medium was replaced with fresh medium containing 7a or 7j (2, 4 and 8 μmol/L) and cells were incubated for an additional 48 h. Cell apoptosis was detected using Annexin V-EGFP/PI apoptosis detection Kit by flow cytometry. Subsequently, 5 µl of […] Annexin V and 10 µl of PI was added to the cell suspension, gently vortexed, and incubated at room temperature in the dark for 20 min, then single-cell suspension was prepared followed by flow cytometry (BD Accuri™ C6 Plus).
On the technique in general: A flow cytometer gives signals particle by particle.

Test [2] deals with H1299 cells. Nature of the test: Colony formation assay. The format is cell-based, human. To be noted: 7 days. The text has this: The colony formation assay is an important method for evaluating the ability of adherent cells to proliferate and form colonies on a plate, and it is widely used to assess cell proliferation. We also employed the colony formation assay to further confirm that compounds 7a and 7j can inhibit the proliferation of lung cancer cells, as shown in Fig. 5. After treating lung cancer cells with low, medium, and high concentrations (1, 2, 4 μmol/L) of compounds for 7 days, the number of cell colonies was counted to analyze the proliferation inhibition rate.
H1299 cells were seeded in six-well plates at a density of 500 cells per well and treated with 7a or 7j (1, 2 and 4 μmol/L) for 7 days. Then, cells were per-fixed with 4% paraformaldehyde for 30 min, stained with 0.1% Crystal violet for 15 min, and then washed with pure water. Taking a picture after the plates were air-dry. The clone formations number was counted with Image J.

Take `COc1cc2ncnc(Nc3cccc(-c4cn(Cc5cc(F)ccc5Br)nn4)c3)c2cc1OCCCN1CCOCC1` [Compound 7a]: the IC50 with NCI-H1437 cells was 1.83 ± 0.13 µM; in the test with L02 cells (Homo sapiens, normal hepatocytes L02), 18.9 ± 1.03 µM. The “Survival rate %, 48 h” value in the test on L02 cells (2 μM) is recorded as 95.37 ± 2.98%; with L02 cells (4 μM), 71.97 ± 2.33%; in the test with L02 cells (8 μM), 66.89 ± 1.52%; with L02 cells (16 μM) it was 63.25 ± 1.25%; in the test with L02 cells (32 μM) it was 32.43 ± 0.95%. The “total apoptotic cell proportion” value in the test on H1299 cells [1] (H1299, 2 μmol/L) came out at 19.03 ± 2.10%; in the test with H1299 cells [1] (H1299, 4 μmol/L), 28.73 ± 1.12%; in the test with H1299 cells [1] (H1299, 8 μmol/L), 50.1 ± 2.91%. Also, the “formation of H1299 cell colonies” value in the test on H1299 cells [2] (1 μmol/L) is on record as “markedly inhibit”. For the same compound, the colony formation entry with H1299 cells [2] (H1299, 4 μmol/L) was “almost completely suppressed”.
